The values below are quoted from earlier work in PMC3045272 (Acta Crystallographica Section D: Biological Crystallography, 2011).

The test system of the series is Cn (calcineurin). Also on record: method as in Landrieu et al., 2010. The settings on record: modification of the fourth residue; ref Landrieu et al., 2010.

With Debio 025, the “binding of the compound–CypA complex to Cn” value is “prevents binding of the Debio 025–CypA complex to Cn”.
